molecular target: T1, cellular PARG (Homo sapiens, UniProt Q86W56); test: Nuclear PAR accumulation assay (immunofluorescence high-content imaging, MMS-treated HeLa cells); format: cell-based; conditions: 1 hour compound then MMS 50 μg/mL for an additional hour
T1 construct: endogenous in cells; host or cells: HeLa
Description: HeLa cells were plated at 15,000 cells/well in a 96-well plate the day before compound treatment and then treated with varying concentrations of test compound and incubated for 1 hour at 37° C.+5% CO2. Following test compound treatment, methylmethane sulfonate (MMS) was added to a final concentration of 50 μg/mL and the cells were incubated for an additional hour. Following treatment, the cells were fixed with ice cold 95% methanol and the plates sealed and placed at -20° C. for 15 minutes. The cells were then washed once with phosphate buffered saline (PBS) and permeabilized with 0.10% Triton-X 100 for 20 minutes at room temperature. […] The cells were then washed three times with PBS before incubation with a fluorescently conjugated goat anti-mouse antibody (Invitrogen A32723) diluted 1:500 in 5% FBS+0.1% Tween-20+PBS for 1 hour at room temperature. The cells were again washed three times with PBS and the nuclei labeled by incubating with 1 μg/mL DAPI (4′,6-diamidino-2-phenylindole). Nuclear PAR accumulation was evaluated using high-content fluorescence microscopy. Four fields for each well were acquired at 20× magnification resulting in at least 1,000 cells analyzed per well. […] Both the average intensity per nucleus and percent PAR positive cells were quantified. […] Concentration-response-curves and IC50 values were generated using four parameter logistic curve fit software.
Representative data for exemplary compounds is presented in Table 32, Table 33 and Table 34.

T1 sequence (Q86W56 whole entry): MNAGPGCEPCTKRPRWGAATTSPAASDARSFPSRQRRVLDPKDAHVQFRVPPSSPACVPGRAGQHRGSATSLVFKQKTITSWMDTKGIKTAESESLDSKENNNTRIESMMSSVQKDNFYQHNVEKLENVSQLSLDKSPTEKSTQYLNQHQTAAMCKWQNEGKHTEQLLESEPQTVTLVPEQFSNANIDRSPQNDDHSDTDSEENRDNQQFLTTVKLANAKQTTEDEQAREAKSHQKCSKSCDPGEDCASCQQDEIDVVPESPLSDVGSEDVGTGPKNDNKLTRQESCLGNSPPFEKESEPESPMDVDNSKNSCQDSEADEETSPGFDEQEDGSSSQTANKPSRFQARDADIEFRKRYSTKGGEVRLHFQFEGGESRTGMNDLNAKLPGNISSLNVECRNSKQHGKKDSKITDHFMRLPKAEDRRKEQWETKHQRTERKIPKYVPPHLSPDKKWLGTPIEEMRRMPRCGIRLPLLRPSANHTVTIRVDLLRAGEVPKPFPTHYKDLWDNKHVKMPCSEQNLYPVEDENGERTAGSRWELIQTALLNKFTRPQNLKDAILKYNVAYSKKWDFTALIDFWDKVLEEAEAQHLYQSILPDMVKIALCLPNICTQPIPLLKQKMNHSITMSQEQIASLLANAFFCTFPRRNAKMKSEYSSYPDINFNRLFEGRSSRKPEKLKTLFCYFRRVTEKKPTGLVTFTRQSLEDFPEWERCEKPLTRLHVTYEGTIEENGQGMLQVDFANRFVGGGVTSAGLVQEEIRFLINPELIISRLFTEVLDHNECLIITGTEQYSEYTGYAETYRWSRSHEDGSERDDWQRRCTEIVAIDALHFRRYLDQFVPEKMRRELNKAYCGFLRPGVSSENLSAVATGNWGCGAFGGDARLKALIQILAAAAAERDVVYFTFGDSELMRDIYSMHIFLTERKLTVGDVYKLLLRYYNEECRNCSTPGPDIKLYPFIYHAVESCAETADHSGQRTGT

First: CN(C)CC#C[C@@H]1CN=C2N(C)C(=O)c3cc(S(=O)(=O)NC4(C)CC4)cc(Cl)c3N21 [Example 56, (R)-9-chloro-1-(3-(dimethylamino)prop-1-yn-1-yl)-4-methyl-N-(1-methylcyclopropyl)-5-oxo-1,2,4,5-tetrahydroimidazo[1,2-a]quinazoline-7-sulfonamide]
Second: C[C@@H]1CN=C2N(C)C(=O)c3cc(S(=O)(=O)NC4(C)CC4)cc(-c4ccccc4CO)c3N21 [Example 62, (R)-9-(2-(hydroxymethyl)phenyl)-1,4-dimethyl-N-(1-methylcyclopropyl)-5-oxo-1,2,4,5-tetrahydroimidazo[1,2-a]quinazoline-7-sulfonamide]
The IC50 of the first is lower: under 100 nM for the first, 1000 to 10000 nM for the second.

First: Cn1cc(CN2C(=O)c3cc(S(=O)(=O)NC4(C)CC4)ccc3N3C2=NC[C@H]3CC(F)(F)F)cn1 [Example 39, (R)-4-((1-methyl-1H-pyrazol-4-yl)methyl)-N-(1-methylcyclopropyl)-5-oxo-1-(2,2,2-trifluoroethyl)-1,2,4,5-tetrahydroimidazo[1,2-a]quinazoline-7-sulfonamide]
Second: Cn1cc(CN2C(=O)c3cc(S(=O)(=O)NC4(C)CC4)ccc3N3C2=NC[C@H]3CCC#N)cn1 [Example 128, (R)-1-(2-cyanoethyl)-4-((1-methyl-1H-pyrazol-4-yl)methyl)-N-(1-methylcyclopropyl)-5-oxo-1,2,4,5-tetrahydroimidazo[1,2-a]quinazoline-7-sulfonamide]
The IC50 of the first is lower: under 100 nM for the first, 100 to 1000 nM for the second.

`Cn1cc(CN2C(=O)c3cc(S(=O)(=O)NC4(C)CC4)ccc3N3C2=NC[C@H]3C#Cc2ncn(C)n2)cn1` [Example 66, (R)-1-((1-methyl-1H-1,2,4-triazol-3-yl)ethynyl)-4-((1-methyl-1H-pyrazol-4-yl)methyl)-N-(1-methylcyclopropyl)-5-oxo-1,2,4,5-tetrahydroimidazo[1,2-a]quinazoline-7-sulfonamide] and `Cc1nn(C)cc1C#C[C@@H]1CN=C2N(Cc3cnn(C)c3)C(=O)c3cc(S(=O)(=O)NC4(C)CC4)ccc3N21` [Example 218, (R)-1-((1,3-dimethyl-1H-pyrazol-4-yl)ethynyl)-4-((1-methyl-1H-pyrazol-4-yl)methyl)-N-(1-methylcyclopropyl)-5-oxo-1,2,4,5-tetrahydroimidazo[1,2-a]quinazoline-7-sulfonamide] cannot be ordered by IC50: under 100 nM for the first, under 100 nM for the second.

Compared with `COC(=O)[C@@H]1N=C2N(Cc3cnn(C)c3)C(=O)c3cc(S(=O)(=O)NC4(C)CC4)ccc3N2[C@@H]1C` [Example 293, methyl (1R,2R)-1-methyl-4-((1-methyl-1H-pyrazol-4-yl)methyl)-7-(N-(1-methylcyclopropyl)sulfamoyl)-5-oxo-1,2,4,5-tetrahydroimidazo[1,2-a]quinazoline-2-carboxylate], `C#C[C@@H]1[C@H](C)N=C2N(Cc3cnn(C)c3)C(=O)c3cc(S(=O)(=O)NC4(C)CC4)ccc3N21` [Example 173, (1R,2S)-1-ethynyl-2-methyl-4-((1-methyl-1H-pyrazol-4-yl)methyl)-N-(1-methylcyclopropyl)-5-oxo-1,2,4,5-tetrahydroimidazo[1,2-a]quinazoline-7-sulfonamide] is lower in IC50: 100 to 1000 nM for the first, under 100 nM for the second.

`CCn1nccc1C#C[C@@H]1CN=C2N(Cc3cnn(C)c3)C(=O)c3cc(S(=O)(=O)NC4(C)CC4)ccc3N21` [Example 207, (R)-1-((1-ethyl-1H-pyrazol-5-yl)ethynyl)-4-((1-methyl-1H-pyrazol-4-yl)methyl)-N-(1-methylcyclopropyl)-5-oxo-1,2,4,5-tetrahydroimidazo[1,2-a]quinazoline-7-sulfonamide] and `Cn1cc(CN2C(=O)c3cc(S(=O)(=O)NC4(C)CC4)ccc3N3C2=NC[C@H]3C#Cc2cnn(C)n2)cn1` [Example 140, (R)-4-((1-methyl-1H-pyrazol-4-yl)methyl)-1-((2-methyl-2H-1,2,3-triazol-4-yl)ethynyl)-N-(1-methylcyclopropyl)-5-oxo-1,2,4,5-tetrahydroimidazo[1,2-a]quinazoline-7-sulfonamide] cannot be ordered by IC50: under 100 nM for the first, under 100 nM for the second.

`[2H]C([2H])(c1cnn(C)c1)N1C(=O)c2cc(S(=O)(=O)NC3(C)CC3)c(F)cc2N2C1=NC[C@H]2C#C` [Example 289, (R)-1-ethynyl-8-fluoro-4-((1-methyl-1H-pyrazol-4-yl)methyl-d2)-N-(1-methylcyclopropyl)-5-oxo-1,2,4,5-tetrahydroimidazo[1,2-a]quinazoline-7-sulfonamide] and `[2H]C([2H])(c1cnn(C)c1)N1C(=O)c2cc(S(=O)(=O)NC3(C)CC3)ccc2N2C1=NC[C@H]2C#CC1CC1` [Example 14, (R)-1-(cyclopropylethynyl)-4-((1-methyl-1H-pyrazol-4-yl)methyl-d2)-N-(1-methylcyclopropyl)-5-oxo-1,2,4,5-tetrahydroimidazo[1,2-a]quinazoline-7-sulfonamide] cannot be ordered by IC50: under 100 nM for the first, under 100 nM for the second.

`Cc1cnn2c(C#C[C@@H]3CN=C4N(C)C(=O)c5cc(S(=O)(=O)NC6(C)CC6)ccc5N43)cnc2c1` [Example 182, (R)-4-methyl-N-(1-methylcyclopropyl)-1-((7-methylimidazo[1,2-b]pyridazin-3-yl)ethynyl)-5-oxo-1,2,4,5-tetrahydroimidazo[1,2-a]quinazoline-7-sulfonamide] and `CN1C(=O)c2cc(S(=O)(=O)NC3(C)CC3)ccc2N2C1=NC[C@H]2C#Cc1ccc2cn(C)nc2c1` [Example 147, (R)-4-methyl-1-((2-methyl-2H-indazol-6-yl)ethynyl)-N-(1-methylcyclopropyl)-5-oxo-1,2,4,5-tetrahydroimidazo[1,2-a]quinazoline-7-sulfonamide] cannot be ordered by IC50: under 100 nM for the first, under 100 nM for the second.

`[2H]C([2H])(c1cnn(C)c1)N1C(=O)c2cc(S(=O)(=O)NC3(C)CC3)ccc2N2C1=NC[C@H]2C#Cc1cc(C)nn1C` [Example 231, (R)-1-((1,3-dimethyl-1H-pyrazol-5-yl)ethynyl)-4-((1-methyl-1H-pyrazol-4-yl)methyl-d2)-N-(1-methylcyclopropyl)-5-oxo-1,2,4,5-tetrahydroimidazo[1,2-a]quinazoline-7-sulfonamide] and `Cn1cc(CN2C(=O)c3cc(S(=O)(=O)NC4(C)CC4)ccc3N3C2=NC[C@H]3C#Cc2ccccc2)cn1` [Example 36, (R)-4-((1-methyl-1H-pyrazol-4-yl)methyl)-N-(1-methylcyclopropyl)-5-oxo-1-(phenylethynyl)-1,2,4,5-tetrahydroimidazo[1,2-a]quinazoline-7-sulfonamide] cannot be ordered by IC50: under 100 nM for the first, under 100 nM for the second.

`C[C@@H]1CN=C2N(Cc3cnn(C)c3)C(=O)c3cc(S(=O)(=O)NC4(C)CC4)cc(C4=CCNCC4)c3N21` [Example 80, (R)-1-methyl-4-((1-methyl-1H-pyrazol-4-yl)methyl)-N-(1-methylcyclopropyl)-5-oxo-9-(1,2,3,6-tetrahydropyridin-4-yl)-1,2,4,5-tetrahydroimidazo[1,2-a]quinazoline-7-sulfonamide] and `C[C@@H]1CN=C2N(Cc3cnn(C)c3)C(=O)c3cc(S(=O)(=O)NC4(C)CC4)cc(N4CCNCC4)c3N21` [Example 13, (R)-1-methyl-4-((1-methyl-1H-pyrazol-4-yl)methyl)-N-(1-methylcyclopropyl)-5-oxo-9-(piperazin-1-yl)-1,2,4,5-tetrahydroimidazo[1,2-a]quinazoline-7-sulfonamide] fall in the same range of IC50: 100 to 1000 nM for the first, 100 to 1000 nM for the second.

First: CCN1C(=O)c2cc(S(=O)(=O)NC3(C)CC3)ccc2N2C1=NC[C@H]2C#Cc1cnn2c1OCC(NC)C2 (stereo partly drawn) [Example 205, (1R)-4-ethyl-1-((6-(methylamino)-6,7-dihydro-5H-pyrazolo[5,i-b][1,3]oxazin-3-yl)ethynyl)-N-(1-methylcyclopropyl)-5-oxo-1,2,4,5-tetrahydroimidazo[1,2-a]quinazoline-7-sulfonamide]
Second: Cn1cc(CN2C(=O)c3cc(S(=O)(=O)NC4(C)CC4)ccc3N3C2=NC[C@H]3COC2CC2)cn1 [Example 115, (S)-1-(cyclopropoxymethyl)-4-((1-methyl-1H-pyrazol-4-yl)methyl)-N-(1-methylcyclopropyl)-5-oxo-1,2,4,5-tetrahydroimidazo[1,2-a]quinazoline-7-sulfonamide]
The IC50 of the first is higher: 100 to 1000 nM for the first, under 100 nM for the second.

Compared with `Cn1cc(CN2C(=O)c3cc(S(=O)(=O)NC4(C)CC4)cc(C4=CCCC4)c3N3CCN=C23)cn1` [Example 26, 9-(cyclopent-1-en-1-yl)-4-((1-methyl-1H-pyrazol-4-yl)methyl)-N-(1-methylcyclopropyl)-5-oxo-1,2,4,5-tetrahydroimidazo[1,2-a]quinazoline-7-sulfonamide], `C[C@@H]1CN=C2N(Cc3cnn(C)c3)C(=O)c3cc(S(=O)(=O)NC4(C)CC4)cc(N4CCN(C)CC4)c3N21` [Example 10, (R)-1-methyl-4-((1-methyl-1H-pyrazol-4-yl)methyl)-N-(1-methylcyclopropyl)-9-(4-methylpiperazin-1-yl)-5-oxo-1,2,4,5-tetrahy droimidazo[1,2-a]quinazoline-7-sulfonamide] is lower in IC50: 100 to 1000 nM for the first, under 100 nM for the second.

`Cn1cc(CN2C(=O)c3cc(S(=O)(=O)NC4(C)CC4)ccc3N3C2=NCC3COc2ccc(C#N)cc2)cn1` (centres unmarked) [Example 135, 1-((4-cyanophenoxy)methyl)-4-((1-methyl-1H-pyrazol-4-yl)methyl)-N-(1-methylcyclopropyl)-5-oxo-1,2,4,5-tetrahydroimidazo[1,2-a]quinazoline-7-sulfonamide] showed an IC50 of 100 to 1000 nM.

From patent US20260285875A1, “INHIBITORS OF PARG” (858 Therapeutics, Inc., priority 2023, published 2026)
